{
  "source": "EPA's ToxRefDB 2",
  "key": {"rat [1]": {"tested_on": "rat", "conditions": "Subchronic oral toxicity in rodents, sprague dawley, Feed, dose end: 3 month, group: systemic"}, "rat [2]": {"tested_on": "rat", "conditions": "Multigenerational reproductive toxicity study, other, Oral, Feed, dose end: 2 generation"}, "dog [3]": {"tested_on": "dog", "conditions": "Subchronic oral toxicity in nonrodent, beagle, Feed, dose end: 90 day, group: systemic, systemic / clinical chemistry / albumin / albumin + systemic / clinical chemistry / albumin-globulin ratio / albumin-globulin ratio + …"}, "rabbit [4]": {"tested_on": "rabbit", "conditions": "Prenatal developmental toxicity study, himalayan, Oral, Gavage/Intubation, dose end: 19 GD"}, "rat [5]": {"tested_on": "rat", "conditions": "Prenatal developmental toxicity study, sprague-dawley, Oral, Gavage/Intubation, dose end: 15 GD"}, "mouse [6]": {"tested_on": "mouse", "conditions": "Carcinogenicity, other, Oral, Feed, dose end: 18 month, group: systemic"}, "rat [7]": {"tested_on": "rat", "conditions": "Combined chronic toxicity/carcinogenicity, other, Oral, Feed, dose end: 24 month, group: systemic"}, "dog [8]": {"tested_on": "dog", "conditions": "Chronic toxicity, beagle, Oral, Feed, dose end: 52 week, group: systemic"}, "mouse [9]": {"tested_on": "mouse", "conditions": "Sub-acute repeat dose toxicity, cd1, Oral, Feed, dose end: 5 week, group: systemic"}, "rabbit [10]": {"tested_on": "rabbit", "conditions": "Prenatal developmental toxicity study, new zealand white, Oral, Gavage/Intubation, dose end: 19 GD"}, "rat [11]": {"tested_on": "rat", "conditions": "Combined chronic toxicity/carcinogenicity, fischer, Oral, [Not Specified], dose end: 123 week, group: systemic"}, "dog [12]": {"tested_on": "dog", "conditions": "Chronic toxicity; beagle; Oral; Capsule; dose end: 52 week; group: systemic; systemic / in life observation / clinical signs / ataxia + systemic / in life observation / clinical signs / squinting + systemic / in life …"}, "mouse [13]": {"tested_on": "mouse", "conditions": "Carcinogenicity, cd1, Oral, Feed, dose end: 81 week, group: systemic"}, "[14]": {"conditions": "systemic / in life observation / body weight / body weight + systemic / in life observation / body weight / body weight gain"}, "[15]": {"conditions": "systemic / in life observation / body weight / body weight + systemic / in life observation / body weight / body weight gain + systemic / …"}, "[16]": {"conditions": "group: offspring, systemic / in life observation / body weight / offspring (pup) weight + systemic / organ weight / spleen / absolute + systemic / organ …"}, "[17]": {"conditions": "group: parental, systemic / in life observation / body weight / body weight + systemic / in life observation / body weight / body weight gain + systemic / in…"}, "[18]": {"conditions": "group: developmental, developmental / developmental malformation / heart / misshapen"}, "[19]": {"conditions": "group: maternal, systemic / in life observation / clinical signs / hemorrhagic perineal discharge + systemic / in life observation / mortality / mortality"}, "[20]": {"conditions": "group: maternal, systemic / in life observation / clinical signs / hemorrhagic perineal discharge + systemic / in life observation / mortality / mortality + …"}, "[21]": {"conditions": "group: developmental, developmental / developmental malformation / bone / unossified + developmental / developmental malformation / bone / [other]"}, "[22]": {"conditions": "group: developmental, developmental / developmental malformation / bone / unossified + developmental / developmental malformation / bone / [other] + developmental…"}, "[23]": {"conditions": "group: maternal, systemic / in life observation / body weight / body weight gain + systemic / in life observation / food consumption / food consumption"}, "[24]": {"conditions": "systemic / in life observation / body weight / body weight + systemic / in life observation / body weight / body weight gain + systemic / in…"}, "[25]": {"conditions": "systemic / pathology microscopic / kidney / atrophy"}, "[26]": {"conditions": "systemic / pathology microscopic / kidney / atrophy + systemic / in life observation / body weight / body weight + systemic / in life …"}, "[27]": {"conditions": "systemic / pathology gross / lung / foci + systemic / in life observation / body weight / body weight gain + systemic / pathology …"}, "[28]": {"conditions": "systemic / clinical chemistry / alanine aminotransferase (alt/sgpt) / alanine aminotransferase (alt/sgpt) + systemic / clinical chemistry / …"}, "[29]": {"conditions": "systemic / clinical chemistry / triglycerides / triglycerides"}, "[30]": {"conditions": "group: developmental, developmental / developmental malformation / bone / fused + developmental / developmental malformation / bone / thoracic hemivertebra"}, "[31]": {"conditions": "group: maternal, systemic / in life observation / body weight / body weight gain + systemic / in life observation / clinical signs / convulsions + systemic…"}, "[32]": {"conditions": "systemic / organ weight / liver / absolute + systemic / organ weight / liver / relative to body weight + systemic / urinalysis / specific …"}, "[33]": {"conditions": "systemic / organ weight / liver / relative to body weight + systemic / pathology microscopic / liver / fatty change"}, "[34]": {"conditions": "systemic / organ weight / liver / relative to body weight + systemic / pathology microscopic / liver / fatty change + systemic / pathology …"}},
  "data": [
    {"smiles": "COc1cc(OC)nc(NC(=O)[N-]S(=O)(=O)c2ncccc2OCC(F)(F)F)n1.[Na+]", "note": "[Trifloxysulfuron-sodium]", "values": [
      {"measurement": "LEL", "setting": "rat [1]; systemic / clinical chemistry / cytochrome p450, nos / cytochrome p450, nos", "value": 239, "unit": "mg/kg/day"},
      {"measurement": "LOAEL", "setting": "rat [1]; [14]", "value": 1050, "unit": "mg/kg/day"},
      {"measurement": "NEL", "setting": "rat [1]; [15]", "value": 65.7, "unit": "mg/kg/day"},
      {"measurement": "NOAEL", "setting": "rat [1]; [15]", "value": 507, "unit": "mg/kg/day"},
      {"measurement": "LEL", "setting": "rat [2]; [16]", "value": 631, "unit": "mg/kg/day"},
      {"measurement": "LOAEL", "setting": "rat [2]; [16]", "value": 631, "unit": "mg/kg/day"},
      {"measurement": "NEL", "setting": "rat [2]; [16]", "value": 78.8, "unit": "mg/kg/day"},
      {"measurement": "NOAEL", "setting": "rat [2]; [16]", "value": 78.8, "unit": "mg/kg/day"},
      {"measurement": "LEL", "setting": "rat [2]; [17]", "value": 631, "unit": "mg/kg/day"},
      {"measurement": "LOAEL", "setting": "rat [2]; [17]", "value": 631, "unit": "mg/kg/day"},
      {"measurement": "NEL", "setting": "rat [2]; [17]", "value": 78.8, "unit": "mg/kg/day"},
      {"measurement": "NOAEL", "setting": "rat [2]; [17]", "value": 78.8, "unit": "mg/kg/day"},
      {"measurement": "LEL", "setting": "dog [3]", "value": 164, "unit": "mg/kg/day"},
      {"measurement": "LOAEL", "setting": "dog [3]", "value": 164, "unit": "mg/kg/day"},
      {"measurement": "NEL", "setting": "dog [3]", "value": 19.8, "unit": "mg/kg/day"},
      {"measurement": "NOAEL", "setting": "dog [3]", "value": 19.8, "unit": "mg/kg/day"},
      {"measurement": "LEL", "setting": "rabbit [4]; [18]", "value": 100, "unit": "mg/kg/day"},
      {"measurement": "LOAEL", "setting": "rabbit [4]; [18]", "value": 100, "unit": "mg/kg/day"},
      {"measurement": "NEL", "setting": "rabbit [4]; [18]", "value": 50, "unit": "mg/kg/day"},
      {"measurement": "NOAEL", "setting": "rabbit [4]; [18]", "value": 50, "unit": "mg/kg/day"},
      {"measurement": "LEL", "setting": "rabbit [4]; [19]", "value": 250, "unit": "mg/kg/day"},
      {"measurement": "LOAEL", "setting": "rabbit [4]; [19]", "value": 250, "unit": "mg/kg/day"},
      {"measurement": "NEL", "setting": "rabbit [4]; [20]", "value": 100, "unit": "mg/kg/day"},
      {"measurement": "NOAEL", "setting": "rabbit [4]; [20]", "value": 100, "unit": "mg/kg/day"},
      {"measurement": "LEL", "setting": "rat [5]; [21]", "value": 30, "unit": "mg/kg/day"},
      {"measurement": "NEL", "setting": "rat [5]; [21]", "value": "< 30", "unit": "mg/kg/day"},
      {"measurement": "LOAEL", "setting": "rat [5]; [22]", "value": 1000, "unit": "mg/kg/day"},
      {"measurement": "NOAEL", "setting": "rat [5]; [22]", "value": 300, "unit": "mg/kg/day"},
      {"measurement": "LOAEL", "setting": "rat [5]; [23]", "value": 1000, "unit": "mg/kg/day"},
      {"measurement": "NEL", "setting": "rat [5]; [23]", "value": 30, "unit": "mg/kg/day"},
      {"measurement": "NOAEL", "setting": "rat [5]; [23]", "value": 300, "unit": "mg/kg/day"},
      {"measurement": "LEL", "setting": "rat [5]; group: maternal, systemic / in life observation / food consumption / food consumption", "value": 300, "unit": "mg/kg/day"},
      {"measurement": "LEL", "setting": "mouse [6]; [14]", "value": 24.1, "unit": "mg/kg/day"},
      {"measurement": "LOAEL", "setting": "mouse [6]; [14]", "value": 24.1, "unit": "mg/kg/day"},
      {"measurement": "NEL", "setting": "mouse [6]; [24]", "value": 5.76, "unit": "mg/kg/day"},
      {"measurement": "NOAEL", "setting": "mouse [6]; [24]", "value": 5.76, "unit": "mg/kg/day"},
      {"measurement": "LEL", "setting": "rat [7]; [25]", "value": 99.3, "unit": "mg/kg/day"},
      {"measurement": "LOAEL", "setting": "rat [7]; [25]", "value": 99.3, "unit": "mg/kg/day"},
      {"measurement": "NEL", "setting": "rat [7]; [26]", "value": 23.7, "unit": "mg/kg/day"},
      {"measurement": "NOAEL", "setting": "rat [7]; [26]", "value": 23.7, "unit": "mg/kg/day"},
      {"measurement": "LEL", "setting": "dog [8]; systemic / pathology gross / lung / foci", "value": 15, "unit": "mg/kg/day"},
      {"measurement": "NEL", "setting": "dog [8]; [27]", "value": 6.51, "unit": "mg/kg/day"},
      {"measurement": "NOAEL", "setting": "dog [8]; [27]", "value": 51.1, "unit": "mg/kg/day"},
      {"measurement": "LOAEL", "setting": "dog [8]; systemic / pathology gross / lung / foci + systemic / pathology microscopic / lung / thickened", "value": 123, "unit": "mg/kg/day"}
    ]},
    {"smiles": "C=CCC1=C(C)C(OC(=O)C2C(C=C(C)C)C2(C)C)CC1=O", "note": "(stereo not drawn) [Allethrin]", "values": [
      {"measurement": "LOAEL", "setting": "mouse [9]; [28]", "value": 1520, "unit": "mg/kg/day"},
      {"measurement": "NOAEL", "setting": "mouse [9]; [28]", "value": 438, "unit": "mg/kg/day"},
      {"measurement": "LEL", "setting": "mouse [9]; [29]", "value": 14, "unit": "mg/kg/day"},
      {"measurement": "NEL", "setting": "mouse [9]; [29]", "value": "< 14", "unit": "mg/kg/day"},
      {"measurement": "LEL", "setting": "rabbit [10]; [30]", "value": 350, "unit": "mg/kg/day"},
      {"measurement": "LOAEL", "setting": "rabbit [10]; [30]", "value": 350, "unit": "mg/kg/day"},
      {"measurement": "NEL", "setting": "rabbit [10]; [30]", "value": 100, "unit": "mg/kg/day"},
      {"measurement": "NOAEL", "setting": "rabbit [10]; [30]", "value": 100, "unit": "mg/kg/day"},
      {"measurement": "LEL", "setting": "rabbit [10]; [31]", "value": 350, "unit": "mg/kg/day"},
      {"measurement": "LOAEL", "setting": "rabbit [10]; [31]", "value": 350, "unit": "mg/kg/day"},
      {"measurement": "NEL", "setting": "rabbit [10]; [31]", "value": 100, "unit": "mg/kg/day"},
      {"measurement": "NOAEL", "setting": "rabbit [10]; [31]", "value": 100, "unit": "mg/kg/day"},
      {"measurement": "LOAEL", "setting": "rat [11]; systemic / organ weight / liver / absolute + systemic / organ weight / liver / relative to body weight", "value": 24.5, "unit": "mg/kg/day"},
      {"measurement": "LEL", "setting": "rat [11]; [32]", "value": 5.9, "unit": "mg/kg/day"},
      {"measurement": "NEL", "setting": "rat [11]; [32]", "value": "< 5.9", "unit": "mg/kg/day"},
      {"measurement": "NOAEL", "setting": "rat [11]; [32]", "value": 5.9, "unit": "mg/kg/day"},
      {"measurement": "LEL", "setting": "dog [12]", "value": 20, "unit": "mg/kg/day"},
      {"measurement": "LOAEL", "setting": "dog [12]", "value": 20, "unit": "mg/kg/day"},
      {"measurement": "NEL", "setting": "dog [12]", "value": 6, "unit": "mg/kg/day"},
      {"measurement": "NOAEL", "setting": "dog [12]", "value": 6, "unit": "mg/kg/day"},
      {"measurement": "NEL", "setting": "mouse [13]; [33]", "value": 71.6, "unit": "mg/kg/day"},
      {"measurement": "NOAEL", "setting": "mouse [13]; [33]", "value": 71.6, "unit": "mg/kg/day"},
      {"measurement": "LEL", "setting": "mouse [13]; [34]", "value": 350, "unit": "mg/kg/day"},
      {"measurement": "LOAEL", "setting": "mouse [13]; [34]", "value": 350, "unit": "mg/kg/day"}
    ]}
  ]
}
